Data from patent US10472677B2, “Translational dysfunction based therapeutics” (Translational Therapeutics, Inc., priority 2005, dated 2019).

What was measured:
[1] = target: T1, eIF4E:mRNA binding in cells (Mus musculus, UniProt P63073); assay: immunopurification of eIF4E from treated cells and semiquantitative RT-PCR; format: cell-based
T1 construct: endogenous in cells; host or cells: NIH 3T3 cells
Description: Sepharose-conjugated protein G (Amersham Pharmacia) for 30 min at 4° C., incubated with 10 μg of mouse anti-eIF4E antibody (Transduction Laboratories) for 90 min at 4° C., and subsequently incubated overnight at 4° C. upon addition of 0.5 mg yeast tRNA (Sigma-Aldrich), 200 units/ml RNasin (Ambion), and Sepharose-conjugated protein G. Bound Sepharose was washed once with NET-2 buffer supplemented with 1 mg/ml heparin (Sigma-Aldrich) at 4° C., six times with NET-2 buffer alone, and suspended in 100 mM Tris.HCl (pH 6.8)/4% (wt/vol) SDS/20% (vol/vol) glycerol/12% (vol/vol) 2-mercaptoethanol, and incubated for 5 min at 98° C. RNA was extracted once with 25:24:1 […], twice with chloroform:isopropanol, precipitated overnight at −20° C. with 2.5 volumes of absolute ethanol, 0.1 volume of 5 M sodium acetate (pH 5.2), and 20 μg glycogen (Sigma-Aldrich), washed with 75% (vol/vol) ethanol, and resuspended in water. […]. […]

liver metastatic disease = settings: Jeney et al. 2006; cited from earlier work
[2] = test system: eIF4E-transfected NIH 3T3 cells; assay: transformation assay, anchorage-dependent foci formation; format: cell-based; settings: Mus musculus, NIH3T3, read-out: apparent EC50 suppression of eIF4E-mediated transformation
NIH 3T3 cells = format: cell-based, mouse
Description: For assessment of necrosis and apoptosis, cells were washed twice with PBS, suspended in 0.14 M NaCl/10 mM Na-Hepes (pH 7.4/2.5 mM CaCl2 at 4° C. at a density of 10^6 cell per ml, and stained with 5 μg/ml propidium iodide and FITC-conjugated annexin V (Becton Dickinson) for 15 min at room temperature Immediately thereafter, cells were washed and analyzed by using a FACSCalibur fluorescence-activated cell scanner (Becton Dickinson). For assessment of cell-cycle profiles, cells were washed twice with PBS, fixed, and permeabilized in 70% (vol/vol) ethanol for 30 min at 4° C., and incubated in PBS containing 10 μg/ml propidium iodide and 30 units/ml RNase A at 37° C. for 30 min. For both measurements, detector gain and compensation settings were adjusted to minimize autofluorescence of unstained cells and channel crosstalk. For cell-cycle analysis, the propidium iodide channel was gated based on light scattering to exclude clumped cells, which may artifactually skew the observed fluorescence intensity.
Cells were seeded at a density of 5,000 cells per well and maintained in 100 μl per well in 96-well plates. […] Production of formazan was quantified by using a μ Quant plate reader (Bio-Tek Instruments) by monitoring the difference in absorbance at 492 and 690 nm, as referenced to the difference in absorbance of samples containing 50 μl of RPMI medium 1640 without phenol red. […]

[3] = test system: 4E mediated apoptotic rescue; assay: 4E mediated apoptotic rescue; format: cell-based; settings: FIG. 37

T1 sequence (P63073 2-217 limits assumed): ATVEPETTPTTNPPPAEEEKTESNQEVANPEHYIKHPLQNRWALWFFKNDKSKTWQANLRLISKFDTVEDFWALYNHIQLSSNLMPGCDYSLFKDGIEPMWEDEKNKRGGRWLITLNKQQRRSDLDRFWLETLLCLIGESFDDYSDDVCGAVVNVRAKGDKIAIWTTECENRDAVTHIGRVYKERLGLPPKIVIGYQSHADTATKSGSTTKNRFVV

For `NC(=O)c1ncn([C@@H]2O[C@H](CO)[C@@H](O)[C@H]2O)n1` [Ribavirin, 1-β-D-ribofuranosyl-1,2,4-triazole-3-carboxamide], the “cytoplasmic eIF4E:VEGF mRNA complexes” value ([1]; 1 uM) was “partly abrogated”, the “cytoplasmic eIF4E:actin mRNA complexes” value ([1]; 100 uM) was “not disrupted” and the EC50 ([1]; nuclear eIF4E, read-out: apparent EC50 inhibition of eIF4E binding to cyclin D1 mRNA in cells) was roughly 1 µM. For the same molecule, the “effect on liver metastatic disease” value (liver metastatic disease) was “reduce liver metastatic disease”, the EC50 [2] was 0.1 to 1 µM and the “proportion of cells restricted to the G1 phase” value (NIH 3T3 cells; 0.1 μM, untreated 58%) was 91%. For the same molecule, the “concentration with significant effects on viability and metabolism” value (NIH 3T3 cells; mouse) was no less than 100 µM and the “effect on 4E mediated apoptotic rescue” value [3] was “blocks”.
